Assay results published in PubChem BioAssay AID192 (DTP/NCI, 2004).
Several values for one entry are separate records, joined by “and”; a condition that tells them apart may be missing. Equal values may be shown once. Inconclusive results and toxic doses are left out.

Tested on: BDF1 mice, B16 melanoma ip, median survival T/C
Test: NCI In Vivo Anticancer Drug Screen. Data for tumor model B16 Melanoma (intraperitoneal) in B6D2F1 (BDF1) mice
Details: endpoint: median survival time, higher = longer survival
Summary of the method: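 Compounds were tested in mice carrying transplantable tumors. Survival or tumor size was recorded, and each value is the treated-group measurement (T) divided by that of the vehicle-treated control group (C).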

[1] = dose: 8.0 mg/kg/injection, schedule: Q04DX003 (ip), vehicle: saline with Tween-80
[2] = dose: 12.5 mg/kg/injection, schedule: Q01DX009 (ip), vehicle: saline with Tween-80
[3] = dose: 25.0 mg/kg/injection, schedule: Q01DX009 (ip), vehicle: saline with Tween-80
[4] = dose: 50.0 mg/kg/injection, schedule: Q01DX009 (ip), vehicle: saline with Tween-80
[5] = dose: 100.0 mg/kg/injection, schedule: Q01DX009 (ip), vehicle: Klucel (hydroxypropylcellulose) (HPC)
[6] = dose: 200.0 mg/kg/injection, schedule: Q01DX009 (ip), vehicle: Klucel (hydroxypropylcellulose) (HPC)
[7] = dose: 400.0 mg/kg/injection, schedule: Q01DX009 (ip), vehicle: Klucel (hydroxypropylcellulose) (HPC)
[8] = dose: 100.0 mg/kg/injection, schedule: Q01DX009 (ip), vehicle: saline with Tween-80
[9] = dose: 200.0 mg/kg/injection, schedule: Q01DX009 (ip), vehicle: saline with Tween-80
[10] = dose: 400.0 mg/kg/injection, schedule: Q01DX009 (ip), vehicle: saline with Tween-80

**Q.** How did the T/C (dose: 50.0 mg/kg/injection, schedule: Q01DX009 (ip), vehicle: suspension in saline) turn out when `CC(=O)OCC1OC(n2cnc3c(=S)nc[nH]c32)C(OC(C)=O)C1OC(C)=O` (stereo not given) was run?
**A.** The T/C was 114 % of control.

**Q.** What about the T/C (dose: 100.0 mg/kg/injection, schedule: Q01DX009 (ip), vehicle: suspension in saline) of the same compound?
**A.** The T/C was 109 % of control.

**Q.** What about the T/C (dose: 100.0 mg/kg/injection, schedule: Q04DX003 (ip), vehicle: saline with Tween-80) of the same compound?
**A.** The T/C was 106 % of control.

**Q.** And the T/C (dose: 200.0 mg/kg/injection, schedule: Q04DX003 (ip), vehicle: saline with Tween-80)?
**A.** The T/C was 100 % of control.

**Q.** And the T/C (dose: 400.0 mg/kg/injection, schedule: Q04DX003 (ip), vehicle: saline with Tween-80)?
**A.** Its T/C is 91 % of control.

**Q.** With `C=CC1CC[N-]CC1.C=CC1CC[N-]CC1.C=CC1CC[N-]CC1.[Cl][Cr]([Cl])[Cl]` as the compound, how does the T/C [1] read?
**A.** Its T/C is 97 % of control.

**Q.** And the T/C (dose: 12.0 mg/kg/injection, schedule: Q04DX003 (ip), vehicle: saline with Tween-80)?
**A.** The T/C was 102 % of control.

**Q.** And the T/C [2]?
**A.** Its T/C is 95 % of control.

**Q.** And the T/C (dose: 18.0 mg/kg/injection, schedule: Q04DX003 (ip), vehicle: saline with Tween-80)?
**A.** The T/C was 105 % of control.

**Q.** What about the T/C [3] of the same compound?
**A.** The T/C was 95 % of control.

**Q.** What about the T/C (dose: 25.0 mg/kg/injection, schedule: Q04DX003 (ip), vehicle: saline with Tween-80) of the same compound?
**A.** Its T/C is 121 % of control.

**Q.** And the T/C [4]?
**A.** The T/C was 102 % of control.

**Q.** And the T/C (dose: 50.0 mg/kg/injection, schedule: Q04DX003 (ip), vehicle: saline with Tween-80)?
**A.** The T/C was 113 % of control.

**Q.** How did the T/C [5] turn out when `CCOC(=O)Nc1ccc([N+](=O)[O-])cc1` was run?
**A.** Its T/C is 113 % of control.

**Q.** And the T/C [6]?
**A.** The T/C was 103 % of control.

**Q.** What does the source list for `CC(CC#N)OC(=O)c1cccc([N+](=O)[O-])c1` (stereo not given)?
**A.** T/C [5]: 88 % of control; T/C [6]: 99 % of control; T/C [7]: 91 % of control

**Q.** `COc1ccc(C(OC2OC(n3cnc4c(=S)nc(N)[nH]c43)CC2OC(C)=O)(c2ccccc2)c2ccc(OC)cc2)cc1` (stereo not given) was tested. Which T/C [5] did it give?
**A.** Its T/C is 90 % of control.

**Q.** What about the T/C [6] of the same compound?
**A.** Its T/C is 96 % of control.

**Q.** What about the T/C [7] of the same compound?
**A.** The T/C was 93 % of control.

**Q.** How did the T/C (dose: 100.0 mg/kg/injection, schedule: Q04DX003 (ip), vehicle: Klucel (hydroxypropylcellulose) (HPC)) turn out when `CCN(C(=O)Nc1ccc(OC)cc1)c1ccccc1C` was run?
**A.** Its T/C is 102 % of control.

**Q.** What about the T/C (dose: 200.0 mg/kg/injection, schedule: Q04DX003 (ip), vehicle: Klucel (hydroxypropylcellulose) (HPC)) of the same compound?
**A.** Its T/C is 102 % of control.

**Q.** And the T/C (dose: 400.0 mg/kg/injection, schedule: Q04DX003 (ip), vehicle: Klucel (hydroxypropylcellulose) (HPC))?
**A.** Its T/C is 102 % of control.

**Q.** What does the source list for `O=C(Nc1cc(C(F)(F)F)ccc1Cl)c1ccc(Cl)cc1`?
**A.** T/C [5]: 104 % of control; T/C [6]: 100 % of control; T/C [7]: 103 % of control

**Q.** Which results are given for `CCOC(=O)C(C=O)(NC(=O)c1ccccc1)OCC` (stereo not given)?
**A.** T/C [8]: 102 % of control; T/C [9]: 97 % of control; T/C [10]: 100 % of control

**Q.** Which results are given for `CC(SC(C)c1ccccc1)c1ccccc1` (stereo not given)?
**A.** T/C [8]: 101 % of control; T/C [9]: 99 % of control; T/C [10]: 88 % of control

**Q.** With `COc1ccc(NC(=O)COc2ccc(Cl)cc2)cc1` as the compound, how does the T/C [5] read?
**A.** The T/C was 90 % of control.

**Q.** What about the T/C [6] of the same compound?
**A.** The T/C was 100 % of control.

**Q.** What about the T/C [7] of the same compound?
**A.** The T/C was 86 % of control.

**Q.** What does the source list for `COc1cc2c(cc1OC)C(C=C(c1ccccc1)c1ccccc1)N(C)CC2` (stereo not given)?
**A.** T/C (dose: 12.5 mg/kg/injection, schedule: Q04DX003 (ip), vehicle: Klucel (hydroxypropylcellulose) (HPC)): 97 % of control; T/C (dose: 25.0 mg/kg/injection, schedule: Q04DX003 (ip), vehicle: Klucel (hydroxypropylcellulose) (HPC)): 97 % of control; T/C (dose: 50.0 mg/kg/injection, schedule: Q04DX003 (ip), vehicle: Klucel (hydroxypropylcellulose) (HPC)): 100 % of control

**Q.** Which results are given for `O=c1[nH]c(=O)n(C2CC(O)C(CO)O2)cc1I` (stereo not given)?
**A.** T/C [3]: 106 % of control; T/C [4]: 118 % of control; T/C [8]: 123 % of control; T/C [9]: 116 % of control; T/C [10]: 120 % of control; T/C (dose: 800.0 mg/kg/injection, schedule: Q01DX009 (ip), vehicle: saline with Tween-80): 150 % of control

**Q.** `Nc1ncnc2c1c1c(N)[nH]nc1n2C1OC(CO)C(O)C1O` (stereo not given) was tested. Which T/C (dose: 25.0 mg/kg/injection, schedule: Q01DX009 (ip), vehicle: saline) did it give?
**A.** The T/C was 110 % of control.

**Q.** And the T/C (dose: 50.0 mg/kg/injection, schedule: Q01DX009 (ip), vehicle: saline)?
**A.** The T/C was 106 % of control.

**Q.** And the T/C (dose: 100.0 mg/kg/injection, schedule: Q01DX009 (ip), vehicle: saline)?
**A.** The T/C was 95 % of control.

**Q.** With `COC(=O)CC(=O)C=P(c1ccccc1)(c1ccccc1)c1ccccc1` as the compound, how does the T/C [2] read?
**A.** Its T/C is 98 % of control.

**Q.** And the T/C [3]?
**A.** Its T/C is 103 % of control.

**Q.** What about the T/C [4] of the same compound?
**A.** The T/C was 107 % of control.

**Q.** And the T/C [8]?
**A.** Its T/C is 113 % of control.

**Q.** What does the source list for `CN(C)c1ccc(/C=C/c2cc[n+](C)cc2)cc1`?
**A.** T/C (dose: 1.32 mg/kg/injection, schedule: Q04DX003 (ip), vehicle: saline with Tween-80): 95 % of control; T/C (dose: 4.0 mg/kg/injection, schedule: Q04DX003 (ip), vehicle: saline with Tween-80): 150 % of control; T/C [1]: 117 % of control

**Q.** What does the source list for `C=CS(C=C)=NS(=O)(=O)c1ccc(C)cc1`?
**A.** T/C (dose: 1.56 mg/kg/injection, schedule: Q01DX009 (ip), vehicle: Klucel (hydroxypropylcellulose) (HPC)): 95 % of control and 108 % of control; T/C (dose: 3.12 mg/kg/injection, schedule: Q01DX009 (ip), vehicle: Klucel (hydroxypropylcellulose) (HPC)): 95 % of control and 101 % of control; T/C (dose: 6.25 mg/kg/injection, schedule: Q01DX009 (ip), vehicle: Klucel (hydroxypropylcellulose) (HPC)): 97 % of control and 98 % of control; T/C (dose: 12.5 mg/kg/injection, schedule: Q01DX009 (ip), vehicle: Klucel (hydroxypropylcellulose) (HPC)): 107 % of control and 110 % of control; T/C (dose: 25.0 mg/kg/injection, schedule: Q01DX009 (ip), vehicle: Klucel (hydroxypropylcellulose) (HPC)): 88 % of control and 95 % of control
